Results as given in ChEMBL document CHEMBL6083251, “"Pseudosubstrate Envelope"/Free Energy Perturbation-Guided Design and Mechanistic Investigations of Benzothiazole HIV Capsid Modulators with High Ligand Efficiency” (J Med Chem, 2024).
Active and inactive are the calls of the source. No cut-off for these calls is given here.

How the values were obtained:
[1] = system: Human immunodeficiency virus 1; test: Anti-HIV activity against wild type HIV-1 IIIB infected in human MT4 cells assessed as protection against virus-induced cytopathic effect incubated for 5 days by spectrophotometric based MTT assay; assay type: functional, organism-based; conditions: Human immunodeficiency virus 1, IIIB, MT4, 120 h
[2] = Selectivity index, ratio of CC50 for human MT4 cells to EC50 for wild type HIV-1 IIIB infected in human MT4 cells; assay type: toxicity, cell-based; conditions: read-out: Selectivity Index
MT4 = test: Cytotoxicity against human MT4 cells assessed as reduction in cell viability incubated for 5 days by spectrophotometric based MTT assay; assay type: functional; conditions: MT4, 120 h, time 5 day
[3] = Selectivity index, ratio of CC50 for human MT4 cells to EC50 for HIV-2 ROD infected in human MT-4 cells; assay type: toxicity, cell-based; conditions: read-out: Selectivity Index
[4] = system: Human immunodeficiency virus 2; test: Anti-HIV activity against HIV-2 ROD infected in human MT-4 cells assessed as protection against virus-induced cytopathic effect incubated for 5 days by spectrophotometric based MTT assay; assay type: functional, organism-based; conditions: Human immunodeficiency virus 2, ROD, MT4, 120 h
[5] = Selectivity ratio of EC50 for wild type HIV-1 IIIB infected in human MT4 cells to EC50 for HIV-2 ROD infected in human MT-4 cells assessed as protection against virus-induced cytopathic effect incubated for 5 days by spectrophotometric based MTT assay; assay type: functional; conditions: time 5 day
[6] = target: Structural capsid protein (Human immunodeficiency virus 1) (UniProt Q76129); test: Binding affinity to HIV-1 hexameric capsid protein assessed as reduction in CPSF6 binding to capsid protein by competition assay based SPR analysis; conditions: filed as modulator
Sequence of Structural capsid protein (Human immunodeficiency virus 1) (Q76129 as listed by the source): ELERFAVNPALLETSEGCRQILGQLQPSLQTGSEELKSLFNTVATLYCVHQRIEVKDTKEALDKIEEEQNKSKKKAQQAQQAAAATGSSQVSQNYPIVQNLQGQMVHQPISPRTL

[7] = target: Human immunodeficiency virus type 1 reverse transcriptase (Human immunodeficiency virus 1) (UniProt Q72547); test: Inhibition of HIV1 reverse transcriptase at 13 nM incubated for 1 hr by ELISA analysis
[8] = target: T1, Structural capsid protein (Human immunodeficiency virus 1, UniProt Q76129); test: Binding affinity to hexameric HIV-1 NL4.3 capsid protein assessed as dissociation constant by SPR assay
T1 sequence (Q76129 whole entry): as the sequence (Q76129 as listed by the source) above

[9] = system: Human immunodeficiency virus 1; test: Antiviral activity against pseudotyped HIV-1 expressing luciferase-reporter transfected in HEK293T cells assessed as increase in p24 level in progeny virions by ELISA analysis; assay type: functional, organism-based
[10] = system: Human immunodeficiency virus 1; test: Antiviral activity against pseudotyped HIV-1 expressing luciferase-reporter transfected in HEK293T cells assessed as viral inhibition at early stage incubated for 48 hrs by Single-round infection assay; assay type: functional, organism-based
[11] = target: T1, Structural capsid protein; test: Binding affinity to monomeric HIV-1 NL4.3 capsid protein assessed as dissociation constant by SPR assay
[12] = system: Human immunodeficiency virus 1; test: Antiviral activity against pseudotyped HIV-1 expressing luciferase-reporter transfected in HEK293T cells assessed as viral inhibition at late stage incubated for 48 hrs by Single-round infection assay; assay type: functional, organism-based
[13] = target: Structural capsid protein (Human immunodeficiency virus 1) (UniProt Q76129); test: Binding affinity to HIV-1 hexameric capsid protein assessed as reduction in NUP153 binding to capsid protein by competition assay based SPR analysis; conditions: filed as modulator
[14] = target: Human immunodeficiency virus type 1 reverse transcriptase (Human immunodeficiency virus 1) (UniProt Q72547); test: Inhibition of HIV1 reverse transcriptase at 20 nM incubated for 1 hr by ELISA analysis

Structure (SMILES) | EC50 [1] [nM] | selectivity ratio [2] | CC50 (MT4) [nM] | selectivity ratio [3] | EC50 [4] [nM] | Ratio EC50 [5] | Activity [6] | inhibition [7] | Kd [8] [nM] | Activity [9] | Activity [10] | Kd [11] [nM] | Activity [12] | Activity [13] | inhibition [14]
CN(C(=O)[C@H](Cc1cc(F)cc(F)c1)NC(=O)C(=O)c1c[nH]c2ccccc12)c1ccc2scnc2c1 | > 23600 | < 0.01 | 23600 | < 0.01 | > 23600 |  |  |  |  |  |  |  |  |  | 
Cc1[nH]c2ccc(Cl)cc2c1CC(=O)N[C@@H](Cc1cc(F)cc(F)c1)C(=O)N(C)c1ccc2scnc2c1 | 199 | 133 | 26400 | 41.7 | 633 | 0.31 |  |  |  |  |  |  |  |  | 
CN(C(=O)[C@H](Cc1cc(F)cc(F)c1)NC(=O)Cc1c[nH]c2cc(F)ccc12)c1ccc2scnc2c1 | 16.8 | 1500 | 25200 | 153 | 165 | 0.1 |  |  |  |  |  |  |  |  | 
CN(C(=O)[C@H](Cc1cc(F)cc(F)c1)NC(=O)Cc1c[nH]c2cccc(Br)c12)c1ccc2scnc2c1 | 166 | 133 | 22200 | 20.5 | 1080 | 0.15 |  |  |  |  |  |  |  |  | 
CN(C(=O)[C@H](Cc1cc(F)cc(F)c1)NC(=O)Cc1c[nH]c2ccc([N+](=O)[O-])cc12)c1ccc2scnc2c1 | 6.37 | 4460 | 28400 | 220 | 129 | 0.05 | Active | inactive | 87.9 | Active | Active | 153 | Active | Active | 
Cc1[nH]c2ccc(F)cc2c1CC(=O)N[C@@H](Cc1cc(F)cc(F)c1)C(=O)N(C)c1ccc2scnc2c1 | 170 | 147 | 24900 | 33.4 | 745 | 0.23 |  |  |  |  |  |  |  |  | 
COc1ccc2c(CC(=O)N[C@@H](Cc3cc(F)cc(F)c3)C(=O)N(C)c3ccc4scnc4c3)c[nH]c2c1 | 127 | 300 | 38200 | 170 | 224 | 0.57 |  |  |  |  |  |  |  |  | 
COC(=O)c1c(C)ccn1CC(=O)N[C@@H](Cc1cc(F)cc(F)c1)C(=O)N(C)c1ccc2scnc2c1 | 1030 | 124 | 127000 | 66.3 | 1920 | 0.53 |  |  |  |  |  |  |  |  | 
CN(C(=O)[C@H](Cc1cc(F)cc(F)c1)NC(=O)Cc1c[nH]c2cccc(Cl)c12)c1ccc2scnc2c1 | 186 | 132 | 24400 | 12.7 | 1930 | 0.1 |  |  |  |  |  |  |  |  | 
Cc1cc(C(F)(F)F)nn1CC(=O)N[C@@H](Cc1cc(F)cc(F)c1)C(=O)N(C)c1ccc2scnc2c1 | 223 | 543 | 121000 | 133 | 912 | 0.24 |  |  |  |  |  |  |  |  | 
CN(C(=O)[C@H](Cc1cc(F)cc(F)c1)NC(=O)Cc1c[nH]c2cc(F)c(F)cc12)c1ccc2scnc2c1 | 9.81 | 2410 | 23600 | 116 | 204 | 0.05 | Active |  | 305 | Active | Active | 267 | Active | Active | inactive
Cc1ccc2[nH]cc(CC(=O)N[C@@H](Cc3cc(F)cc(F)c3)C(=O)N(C)c3ccc4scnc4c3)c2c1 | 42.4 | 621 | 26400 | 137 | 193 | 0.22 |  |  |  |  |  |  |  |  | 
COc1ccc2[nH]c(C)c(CC(=O)N[C@@H](Cc3cc(F)cc(F)c3)C(=O)N(C)c3ccc4scnc4c3)c2c1 | 32.8 | 900 | 29500 | 81 | 365 | 0.09 |  |  |  |  |  |  |  |  | 
